Earlier results on two compounds are cited in patent US9345804B2, “S-nitrosothiol-generating skin dressings” (Insense Limited, priority 2007, dated 2016).

A word on the pKa: it is the negative logarithm of the acid dissociation constant.

The conditions of data set [1]: at 25° C.
For data set [2] the following is noted: under normal conditions.

As for `O=NO` [nitrite], in data set [1], the pKa is recorded as 3.4.
Consider nitrosoglycerol, for which the “time to almost complete decomposition” value in data set [2] is listed as “hours/days”.
